Measured values reported in patent US20060069132A1, “Azolecarboxamide herbicides” (priority 2004, published 2006).

Legend:
pigweed = assay: Test B pre-/postemergence herbicide test; type: in vivo, Amaranthus retroflexus
In short: (§1)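 Greenhouse pot assay with simultaneous preemergence (treated seed) and postemergence (2–18 cm seedlings) applications of surfactant-containing, non-phytotoxic solvent formulations. Response scored visually 13–15 days later on a 0–100 scale, 100 meaning complete control.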

rice = assay: Test B flooded paddy test; type: in vivo, Oryza sativa; settings: scale 0 to 100 (0 no effect, 100 complete control)
In short: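 Greenhouse test; postemergence application to plants at 1–4 leaves (2–18 cm); paddy species at 2 leaves; evaluated visually vs controls at 13–15 days; scale 0–100 (100 = complete control).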

large crabgrass = assay: Test B pre-/postemergence herbicide test; type: in vivo, Digitaria sanguinalis
In short: as §1

corn = assay: Test B pre-/postemergence herbicide test; type: in vivo, Zea mays
In short: as §1

giant foxtail = assay: Test B pre-/postemergence herbicide test; type: in vivo, Setaria faberi
In short: as §1

barnyardgrass [1] = assay: Test B flooded paddy test; type: in vivo, Echinochloa crus-galli; settings: scale 0 to 100 (0 no effect, 100 complete control)
In short: (§2)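 Paddy species grown to the 2-leaf stage under flooding; blackgrass sprayed postemergence at 2–18 cm (1- to 4-leaf stage). Plants kept in a greenhouse for 13 to 15 days, then visually rated against controls on 0 (no effect) to 100 (complete control).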

wheat = assay: Test B postemergence herbicide test; type: in vivo, Triticum aestivum; design: key to Wheat plant response rating: 0 = no effect, 100 = complete control
In short: (§3)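 Read-out: visual comparison with controls, scored 0 to 100, where 100 means complete control and 0 no effect. Formulated chemicals were applied postemergence to plants 2–18 cm tall (1- to 4-leaf), or to flooded-paddy plants at the 2-leaf stage, then held 13 to 15 days under glass.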

lambsquarters = assay: Test B pre-/postemergence herbicide test; type: in vivo, Chenopodium album
In short: as §1

wild oat = assay: Test B postemergence herbicide test; type: in vivo, Avena fatua
In short: as §3

Surinam grass = assay: Test B pre-/postemergence herbicide test; type: in vivo, Urochloa decumbens
In short: as §1

ducksalad = assay: Test B flooded paddy test; type: in vivo, Heteranthera limosa; settings: scale 0 to 100 (0 no effect, 100 complete control)
In short: as §2

[2] = test system: small flower umbrella sedge; assay: Test B flooded paddy test; type: in vivo, Cyperus difformis; settings: scale 0 to 100 (0 no effect, 100 complete control)
In short: as §2

barnyardgrass [3] = assay: Test B pre-/postemergence herbicide test; type: in vivo, Echinochloa crus-galli; settings: for Barnyardgrass plant response rating: Postemergence, scale 0 (no effect) to 100 (complete control)
In short: (§4)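 Test chemicals in a non-phytotoxic solvent mixture with surfactant were applied preemergence to seeded species and postemergence to plants 2-18 cm tall (1- to 4-leaf stage); rice and barnyardgrass were also tested in a flooded paddy at the 2-leaf stage. Visual rating versus controls after 13-15 days in greenhouse, scale 0 (no effect) to 100 (complete control).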

blackgrass = assay: Test B postemergence herbicide test; type: in vivo, Alopecurus myosuroides
In short: as §2

velvetleaf = assay: Test B pre-/postemergence herbicide test; type: in vivo, Abutilon theophrasti
In short: as §1

cocklebur = assay: Test B pre-/postemergence herbicide test; type: in vivo, Xanthium strumarium
In short: as §4

morningglory = assay: Test B pre-/postemergence herbicide test; type: in vivo, Ipomoea coccinea
In short: as §4

[4] = 125 g ai/ha, 0 is no effect, 100 is complete control, preemergence
[5] = Postemergence, 500 g ai/ha, scale 0 (no effect) to 100 (complete control)
[6] = postemergence, 125 g ai/ha, scale 0 to 100
[7] = 500 g ai/ha, scale 0 to 100, 0 no effect, 100 complete control, preemergence

Q: What does the source list for CCN(CC)C(=O)c1ccnc(NC(=O)c2nn(C(C)(C)C)nc2C)c1 [Compound 425]?
A: Plant response rating (0 to 100 scale), Pigweed (pigweed; [4]): 70; Pigweed plant response rating (pigweed; [5]): 70; Pigweed plant response rating (pigweed; [6]): 50; Rice plant response rating (rice; 1000 g ai/ha): 20; Plant response rating (0 to 100 scale), Crabgrass, Large (large crabgrass; [4]): 80; Crabgrass, Large plant response rating (large crabgrass; [5]): 30; Crabgrass, Large plant response rating (large crabgrass; [6]): 20; Plant response rating (0 to 100 scale), Corn (corn; [4]): 0; Corn plant response rating (corn; [5]): 20; Corn plant response rating (corn; [6]): 10; Plant response rating (0 to 100 scale), Foxtail, Giant (giant foxtail; [4]): 20; Foxtail, Giant plant response rating (giant foxtail; [5]): 30; Foxtail, Giant plant response rating (giant foxtail; [6]): 20; Barnyardgrass plant response rating (barnyardgrass [1]; 1000 g ai/ha): 30; Wheat plant response rating (wheat; [7]): 30; Wheat plant response rating (wheat; [5]): 0; Wheat plant response rating (wheat; [6]): 0; Plant response rating (0 to 100 scale), Lambsquarters (lambsquarters; [4]): 80; Lambsquarters plant response rating (lambsquarters; [5]): 70; Lambsquarters plant response rating (lambsquarters; [6]): 60; Oat, Wild plant response rating (wild oat; [5]): 0; Oat, Wild plant response rating (wild oat; [6]): 0; Plant response rating (0 to 100 scale), Surinam Grass (Surinam grass; [4]): 40; Surinam Grass plant response rating (Surinam grass; [5]): 20; Surinam Grass plant response rating (Surinam grass; [6]): 10; Ducksalad plant response rating (ducksalad; 1000 g ai/ha): 70; Sedge, Umbrella plant response rating ([2]; 1000 g ai/ha): 70; Plant response rating (0 to 100 scale), Barnyardgrass (barnyardgrass [3]; [4]): 10; Barnyardgrass plant response rating (barnyardgrass [3]; 125 g ai/ha): 10; Barnyardgrass plant response rating (barnyardgrass [3]; 500 g ai/ha): 20; Blackgrass plant response rating (blackgrass; [5]): 20; Blackgrass plant response rating (blackgrass; [6]): 0; Plant response rating (0 to 100 scale), Velvetleaf (velvetleaf; [4]): 20; Velvetleaf plant response rating (velvetleaf; [5]): 30; Velvetleaf plant response rating (velvetleaf; [6]): 20; Plant response rating (0 to 100 scale), Cocklebur (cocklebur; [4]): 0; Cocklebur plant response rating (cocklebur; [5]): 20; Cocklebur plant response rating (cocklebur; [6]): 10; Plant response rating (0 to 100 scale), Morningglory (morningglory; [4]): 0; Morningglory plant response rating (morningglory; [5]): 80; Morningglory plant response rating (morningglory; [6]): 70

Q: With C=Cc1nn(C(C)(C)C)nc1C(=O)Nc1cccc(C(=O)N(C)C)c1 [Compound 445] as the molecule, how does the “Pigweed plant response rating” value (pigweed; [5]) read?
A: 60

Q: And the “Pigweed plant response rating” value (pigweed; [6])?
A: 50

Q: What about the “Rice plant response rating” value (rice; 125 g ai/ha) of the same molecule?
A: 80

Q: What about the “Crabgrass, Large plant response rating” value (large crabgrass; [5]) of the same molecule?
A: 40

Q: What about the “Crabgrass, Large plant response rating” value (large crabgrass; [6]) of the same molecule?
A: 30

Q: And the “Corn plant response rating” value (corn; [5])?
A: 40

Q: And the “Corn plant response rating” value (corn; [6])?
A: 20

Q: And the “Foxtail, Giant plant response rating” value (giant foxtail; [5])?
A: 30

Q: What about the “Foxtail, Giant plant response rating” value (giant foxtail; [6]) of the same molecule?
A: 30

Q: And the “Barnyardgrass plant response rating” value (barnyardgrass [1]; 125 g ai/ha)?
A: 90

Q: What about the “Wheat plant response rating” value (wheat; [7]) of the same molecule?
A: 100

Q: What about the “Wheat plant response rating” value (wheat; [5]) of the same molecule?
A: 50

Q: What about the “Wheat plant response rating” value (wheat; [6]) of the same molecule?
A: 30

Q: What about the “Lambsquarters plant response rating” value (lambsquarters; [5]) of the same molecule?
A: 80

Q: What about the “Lambsquarters plant response rating” value (lambsquarters; [6]) of the same molecule?
A: 60

Q: What about the “Oat, Wild plant response rating” value (wild oat; [5]) of the same molecule?
A: 60

Q: What about the “Oat, Wild plant response rating” value (wild oat; [6]) of the same molecule?
A: 40

Q: And the “Surinam Grass plant response rating” value (Surinam grass; [5])?
A: 30

Q: And the “Surinam Grass plant response rating” value (Surinam grass; [6])?
A: 20

Q: What about the “Ducksalad plant response rating” value (ducksalad; 125 g ai/ha) of the same molecule?
A: 80

Q: What about the “Sedge, Umbrella plant response rating” value ([2]; 125 g ai/ha) of the same molecule?
A: 80

Q: And the “Barnyardgrass plant response rating” value (barnyardgrass [3]; 125 g ai/ha)?
A: 30

Q: And the “Barnyardgrass plant response rating” value (barnyardgrass [3]; 500 g ai/ha)?
A: 40

Q: And the “Blackgrass plant response rating” value (blackgrass; [5])?
A: 50

Q: What about the “Blackgrass plant response rating” value (blackgrass; [6]) of the same molecule?
A: 40

Q: And the “Velvetleaf plant response rating” value (velvetleaf; [5])?
A: 50

Q: And the “Velvetleaf plant response rating” value (velvetleaf; [6])?
A: 50

Q: What about the “Cocklebur plant response rating” value (cocklebur; [5]) of the same molecule?
A: 80

Q: What about the “Cocklebur plant response rating” value (cocklebur; [6]) of the same molecule?
A: 40

Q: What about the “Morningglory plant response rating” value (morningglory; [5]) of the same molecule?
A: 80

Q: What about the “Morningglory plant response rating” value (morningglory; [6]) of the same molecule?
A: 60
